Where a SMILES comes first, the peptide text is derived from it. Bridges are numbered along the chain shown (N, C = ends). [ ]: non-standard residue; d: D form. Phe(4-Cl) = N[C@@H](Cc1ccc(Cl)cc1)C(=O)O; NMeF = CN[C@@H](Cc1ccccc1)C(=O)O; Dap = NC[C@H](N)C(=O)O
biological target: T1, P-selectin (Homo sapiens, UniProt P16109); assay: Inhibition of human neutrophil adhesion to purified P-selectin immobilized on plastic wells; type: cell-based; conditions: inhibiting the binding of human neutrophils to P-selectin
T1 construct: P-selectin is isolated from human platelet lysates; from tissue; host or cells: human platelets (outdated platelet packs from a blood bank)
T1 sequence (P16109 42-830): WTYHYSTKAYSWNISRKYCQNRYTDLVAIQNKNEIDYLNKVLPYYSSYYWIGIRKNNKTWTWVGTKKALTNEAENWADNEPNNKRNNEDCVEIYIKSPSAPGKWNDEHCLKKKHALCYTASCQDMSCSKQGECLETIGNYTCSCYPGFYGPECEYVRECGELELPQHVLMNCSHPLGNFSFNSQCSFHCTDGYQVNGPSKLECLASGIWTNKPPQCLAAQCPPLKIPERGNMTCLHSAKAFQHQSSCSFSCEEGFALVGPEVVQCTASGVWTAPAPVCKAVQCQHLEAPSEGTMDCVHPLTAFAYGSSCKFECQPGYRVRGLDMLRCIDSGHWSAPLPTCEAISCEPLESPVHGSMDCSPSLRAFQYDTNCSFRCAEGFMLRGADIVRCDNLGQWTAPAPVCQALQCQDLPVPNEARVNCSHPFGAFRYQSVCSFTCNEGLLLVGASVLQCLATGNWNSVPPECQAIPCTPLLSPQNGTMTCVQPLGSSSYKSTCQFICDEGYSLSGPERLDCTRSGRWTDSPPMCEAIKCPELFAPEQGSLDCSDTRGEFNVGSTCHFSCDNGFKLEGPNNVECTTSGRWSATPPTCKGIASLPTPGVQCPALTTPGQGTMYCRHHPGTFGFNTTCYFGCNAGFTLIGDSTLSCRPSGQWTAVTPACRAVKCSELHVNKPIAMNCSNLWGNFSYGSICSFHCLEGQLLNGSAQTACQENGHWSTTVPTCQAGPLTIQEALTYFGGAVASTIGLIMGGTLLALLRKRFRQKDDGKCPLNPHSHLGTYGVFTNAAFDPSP
Text: Peptides can be screened for their ability to inhibit adhesion to cells, for example, neutrophil adhesion to purified P-selectin immobilized on plastic wells, using the assay described by Geng, et al., Nature 343, 757-760 (1990). Human neutrophils are isolated from heparinized whole blood by density gradient centrifugation on Mono-Poly resolving media, Flow Laboratories. Neutrophil suspensions are greater than 98% pure and greater than 95% viable by trypan blue exclusion. For adhesion assays, neutrophils are suspended at a concentration of 2×10^6 cells/mL in Hanks' balanced salt solution containing 1.26 mM Ca^2+ and 0.81 mM Mg^2+ (HBSS, Gibco) with […] human serum albumin (HBSS/HSA). Adhesion assays are conducted in triplicate in 96-well microliter plates, Corning, incubated at 4° C. overnight with 50 microliters of various protein solutions. P-selectin is isolated from human platelet lysates by immunoaffinity chromatography on antibody S12-Sepharose™ and ion-exchange chromatography on a Mono-Q™ column (FLPC, Pharmacia Fine Chemicals), as follows. Outdated human platelet packs (100 units) obtained from a blood bank and stored at 4° C. are pooled, adjusted to 5 mM EDTA at pH 7.5, centrifuged at 4,000 rpm for 30 minutes in 1 liter bottles, then washed three times with 1 liter of 0.1M NaCl, 20 mM Tris pH 7.5 (TBS), 5 mM EDTA, 5 mM benzamidine. The pellets are then resuspended in a minimum amount of wash buffer and made 1 mM in DIFP, then frozen in 50 mL screwtop tubes at -80° C. The frozen platelets are thawed and resuspended in 50 mL TBS, 5 mM benzamidine, 5 mM EDTA pH 7.5, […]. The suspension is frozen and thawed two times in a dry ice-acetone bath using a 600 mL lyophilizing flask, then homogenized in a glass/teflon mortar and pestle and made 1 mM in DIFP. The NaCl concentration is adjusted to 0.5M with a stock solution of 4M NaCl. After stirring the suspension at 4° C., it is centrifuged in polycarbonate tubes at 33,000 rpm for 60 minutes at 4° C. The supernatant (0.5M NaCl wash) is removed and saved; this supernatant contains the soluble form of P-selectin. Care is taken not to remove the top part of the pellet with the supernatant. The pellets are then homogenized in extraction buffer (TBS, 5 mM benzamidine, 5 mM EDTA, pH 7.5, 100 μM leupeptin, 2% Triton X-100). After centrifugation at 19,500 rpm for 25 minutes at 4° C., the supernatant is removed. The extraction procedure is repeated with the pellet and the supernatant is combined with the first supernatant. The combined extracts, which contain the membrane form of P-selectin, are adjusted to 0.5M NaCl. The soluble fraction (0.5M NaCl wash) and the membrane extract (also adjusted to 0.5M NaCl) are absorbed with separate pools of the monoclonal antibody S12 (directed to P-selectin) previously couple […]) at 5 mg/mL for 2 hours at 4° C. After letting the resins settle, the supernatants are removed. The S12 Affigel containing bound GMP-140 is then loaded into a column and washed overnight at 4° C. with 400 mL of 0.5M NaCl, 20 mM Tris pH 7.5, 0.01% Lubrol PX. Bound P-selectin is eluted from the S12 Affigel with 100 mL of 80% ethylene glycol, 1 mM MES pH 6.0, 0.01% Lubrol PX. Peak fractions with absorbance at 280 nm are pooled. Eluates are dialyzed against TBS with 0.05% Lubrol, then applied to a Mono Q column (FPLC from Pharmacia). The concentrated protein is step eluted with 2M NaCl, 20 mM Tris pH 7.5 (plus 0.05% Lubrol PX for the membrane fraction). Peak fractions are dialyzed into TBS pH 7.5 (plus 0.05% Lubrol PX for the membrane fraction). P-selectin is plated at 5 micrograms/mL and the control proteins: human serum albumin (Alb), platelet glycoprotein IIb/IIIa (IIb), von Willebrand factor (vWF), fibrinogen (FIB), thrombomodulin (TM), gelatin (GEL) or human serum (HS), are added at 50 micrograms/mL. […]

| Structure (SMILES) | IC50 [µM] |
| --- | --- |
| C[C@@H](O)[C@H](NC(=O)[C@H](Cc1c[nH]c2ccccc12)NC(=O)[C@@H]1CSSC[C@H](NC(=O)[C@H](CCCCN)NC(=O)[C@@H](N)CCCNC(=N)N)C(=O)NCC(=O)NCC(=O)N1)C(=O)N[C@@H](Cc1c[nH]c2ccccc12)C(N)=O [(7)] (H-RKCGGCWTW-NH2; disulfide 3-6) | 610 |
| CC(C)[C@@H](NC(=O)[C@@H](Cc1c[nH]c2ccccc12)NC(=O)[C@H](NC(=O)[C@@H](Cc1c[nH]c2ccccc12)NC(=O)[C@H]1CSSC[C@@H](NC(=O)[C@@H](CCCCN)NC(=O)[C@H](N)CC(=O)O)C(=O)NCC(=O)N[C@@H](Cc2ccccc2)C(=O)N1)[C@H](C)O)C(N)=O [(117)] (H-[dD][dK][dC]GF[dC][dW][dT][dW][dV]-NH2; disulfide 3-6) | 238 |
| CC(C)[C@@H](NC(=O)[C@@H](Cc1c[nH]c2ccccc12)NC(=O)[C@H](NC(=O)[C@@H]1CCCN1C(=O)[C@H]1CSSC[C@@H](NC(=O)[C@@H](CCCCN)NC(=O)[C@H](N)CCCNC(=N)N)C(=O)NCC(=O)N[C@@H](Cc2ccccc2)C(=O)N1)[C@H](C)O)C(N)=O [(82)] (H-[dR][dK][dC]GF[dC]P[dT][dW][dV]-NH2; disulfide 3-6) | 547 |
| CC(C)[C@@H](NC(=O)[C@@H](CCCCN)NC(=O)[C@H](NC(=O)[C@@H](Cc1c[nH]c2ccccc12)NC(=O)[C@H]1CSSC[C@@H](NC(=O)[C@@H](CCCCN)NC(=O)[C@H](N)CCCNC(=N)N)C(=O)NCC(=O)N[C@@H](Cc2ccccc2)C(=O)N1)[C@H](C)O)C(N)=O [(62)] (H-[dR][dK][dC]GF[dC][dW][dT][dK][dV]-NH2; disulfide 3-6) | 533 |
| C[C@H](O)[C@@H](NC(=O)[C@@H](Cc1c[nH]c2ccccc12)NC(=O)[C@H]1CSSC[C@@H](NC(=O)[C@@H](CCCCN)NC(=O)[C@H](N)CCCNC(=N)N)C(=O)NCC(=O)NCC(=O)N1)C(=O)N[C@H](Cc1c[nH]c2ccccc12)C(N)=O [(8)] (H-[dR][dK][dC]GG[dC][dW][dT][dW]-NH2; disulfide 3-6) | 97 |
| CC(C)[C@@H](NC(=O)[C@@H](Cc1c[nH]c2ccccc12)NC(=O)[C@H](NC(=O)[C@@H](CCCCN)NC(=O)[C@H]1CSSC[C@@H](NC(=O)[C@@H](CCCCN)NC(=O)[C@H](N)CCCNC(=N)N)C(=O)NCC(=O)N[C@@H](Cc2ccccc2)C(=O)N1)[C@H](C)O)C(N)=O [(56)] (H-[dR][dK][dC]GF[dC][dK][dT][dW][dV]-NH2; disulfide 3-6) | 727 |
| CC[C@H](C)[C@@H]1NC(=O)CNC(=O)[C@@H](NC(=O)[C@@H](NC(=O)[C@H](CCCCN)NC(=O)[C@@H](N)CCCNC(=N)N)[C@@H](C)CC)CCC(=O)NCCCC[C@@H](C(=O)N[C@@H](Cc2c[nH]c3ccccc23)C(=O)N[C@H](C(N)=O)C(C)C)NC(=O)[C@H](Cc2c[nH]c3ccccc23)NC1=O [(30)] (H-RKIEGIWKWV-NH2; lactam 4-8) | 93 |

Other lines, results leading:

| IC50 [µM] | Structure (SMILES) |
| --- | --- |
| 54 | CC(C)[C@H](NC(=O)[C@H](Cc1c[nH]c2ccccc12)NC(=O)[C@@H](NC(=O)[C@H](Cc1c[nH]c2ccccc12)NC(=O)[C@@H]1CSSC[C@H](N)C(=O)N[C@@H](CCCNC(=N)N)C(=O)NCC(=O)NCC(=O)N1)[C@@H](C)O)C(N)=O [(6)] (H-CRGGCWTWV-NH2; disulfide 1-5) |
| 37.7 | CC(C)[C@@H](NC(=O)[C@@H](Cc1c[nH]c2ccccc12)NC(=O)[C@H](NC(=O)[C@@H](Cc1c[nH]c2ccccc12)NC(=O)[C@H]1CSSC[C@@H](NC(=O)[C@@H](CCCCN)NC(=O)[C@H](N)CCCNC(=N)N)C(=O)NCC(=O)N(C)[C@@H](Cc2ccccc2)C(=O)N1)[C@H](C)O)C(N)=O [(72)] (H-[dR][dK][dC]G[NMeF][dC][dW][dT][dW][dV]-NH2; disulfide 3-6) |
| 8 | CC(C)[C@@H](NC(=O)[C@@H](Cc1c[nH]c2ccccc12)NC(=O)[C@H]1CCC(=O)NCCCC[C@@H](NC(=O)[C@H](N)CCCNC(=N)N)C(=O)N[C@@H]2CSSC[C@@H](NC(=O)[C@H](Cc3ccccc3)NC(=O)CNC2=O)C(=O)N[C@H](Cc2c[nH]c3ccccc23)C(=O)N1)C(N)=O [(106)] (H-[dR][dK][dC]GF[dC][dW][dE][dW][dV]-NH2; lactam 2-8; disulfide 3-6; N-terminus assumed) |
| 5.7 | CC(C)[C@@H](NC(=O)[C@@H](Cc1c[nH]c2ccccc12)NC(=O)[C@H](NC(=O)[C@@H](Cc1c[nH]c2ccccc12)NC(=O)[C@H]1CSSC[C@@H](NC(=O)[C@@H](CCCCN)NC(=O)[C@H](N)CCCNC(=N)N)C(=O)NCC(=O)N[C@@H](Cc2ccc(O)cc2)C(=O)N1)[C@H](C)O)C(N)=O [(87)] (H-[dR][dK][dC]GY[dC][dW][dT][dW][dV]-NH2; disulfide 3-6) |
| 1.5 | CC(C)[C@@H](NC(=O)[C@@H](Cc1c[nH]c2ccccc12)NC(=O)[C@H](NC(=O)[C@@H](Cc1c[nH]c2ccccc12)NC(=O)[C@H]1CSSC[C@@H](NC(=O)[C@@H](CCCCN)NC(=O)[C@H](N)CCCNC(=N)N)C(=O)NCC(=O)N[C@@H](Cc2ccc(Cl)cc2)C(=O)N1)[C@H](C)O)C(N)=O [(115)] (H-[dR][dK][dC]G[Phe(4-Cl)][dC][dW][dT][dW][dV]-NH2; disulfide 3-6) |
| 1.4 | CC(C)[C@@H](NC(=O)[C@@H](Cc1c[nH]c2ccccc12)NC(=O)[C@H](NC(=O)[C@@H](Cc1c[nH]c2ccccc12)NC(=O)[C@H]1CSSC[C@@H](NC(=O)[C@@H](CCCCN)NC(=O)[C@H](N)CCCNC(=N)N)C(=O)NCC(=O)N[C@@H](Cc2c[nH]c3ccccc23)C(=O)N1)[C@H](C)O)C(N)=O [(60)] (H-[dR][dK][dC]GW[dC][dW][dT][dW][dV]-NH2; disulfide 3-6) |

same assay, conditions: stated in text as 'active at'

| concentration at which active in inhibiting neutrophil adhesion to P-selectin [mM] | Structure (SMILES) |
| --- | --- |
| 13 | CC(C)[C@H](NC(=O)[C@H](Cc1c[nH]c2ccccc12)NC(=O)[C@@H](NC(=O)[C@H](Cc1c[nH]c2ccccc12)NC(=O)[C@@H]1CC(=O)NC[C@H](NC(=O)[C@H](CCCCN)NC(=O)[C@@H](N)CCCNC(=N)N)C(=O)NCC(=O)NCC(=O)N1)[C@@H](C)O)C(N)=O [Preferred peptide (22), Arginyl-lysyl-cyclo(diaminopropionyl-glycyl-glycyl-aspartyl)-tryptophyl-threonyl-tryptophyl-valine-amide] (H-RK[Dap]GGDWTWV-NH2; lactam 3-6) |

Reference: patent US5753617A, “Peptide inhibitors of cellular adhesion” (Centocor, Inc., priority 1995, dated 1998)
